These results are taken from article PMC10686989, “Distinct activation mechanisms of β-arrestin-1 revealed by ^19F NMR spectroscopy” (Nature Communications, 2023).

Experiment [1] has as its target T1, βarr1 (Homo sapiens, UniProt P49407, C125S/C140L/C150V/C242V/C251V/C269S/C59V/D390C).
T1 construct: we started from a full-length functional cysteine-less βarr1 construct[20]; 6xHis-tag with SSG linker and thrombin cleavage site (N, cleaved yes); made in house; host or cells: E. coli BL21(DE3)
In words: 19F CEST experiments on βarr1. Format: biochemical. On the procedure: The ^19F CEST experiments were acquired at 298 K on Bruker AVANCE III HD 800 MHz spectrometer equipped a ^1H-^19F/^13C/^15N TCI triple resonance cryogenic probe. Sample preparation was the same as for the 1D ^19F NMR experiments, and the protein concentrations were in the range of 50–100 μM depending on the expression levels of different constructs. For each ^19F-labeled sample, a series of 1D saturation transfer experiments were recorded using a 0.2 s recovery delay followed by a 1.8 s saturation period using irradiation field strengths B1 of 10 Hz. For each sample, the positions and spacings of the carrier frequencies for saturation were determined based on the multiple signals observed in the 1D ^19F spectra, normally covering the chemical shift ranges of the signals of interest. The data were collected with a spectral width of 15,000 Hz and the scan number in the range of 400–1500. The spectra were processed and analyzed using the Bruker Topspin 4.2.0 software. The CEST profiles were drawn using GraphPad Prism® 9.

Experiment [2] deals with T1, βarr1. In words: 19F NMR titration of V2Rpp or PIP2 into βarr1 (activation). The format is biochemical. Conditions: V2Rpp up to 1.2:1, PIP2 up to 3.0:1 molar ratio. On the procedure: All ^19F NMR spectra were recorded at 298 K using a Bruker AVANCE III HD 800 MHz spectrometer equipped with a ^1H-^19F/^13C/^15N TCI triple resonance cryogenic probe. All data were acquired and processed using the Bruker Topspin 4.2.0 software. For all 1D ^19F NMR experiments, the traditional one-pulse sequence was used. The carrier frequency was set to −68.0 ppm and the spectra were recorded with 4k points and a spectral width of 15,000 Hz. Because accurate calibration of the 90° excitation pulse length for individual samples is not practical due to the low protein concentrations, we used the 90° pulse length calibrated from a standard sample (0.05% Trifluoro-toluene in CDCl3) for all βarr1 samples. […] Therefore, all the ^19F experiments were conducted with a 100 ms relaxation delay, and acquired using 100,000–200,000 scans depending on the sample condition, yielding a signal-to-noise (S/N) ratio of approximately 50. […]
All NMR data were analyzed using the MestraNova 12.0.0 software (https://mnova.pl). […] Peak intensities, integrated peak area and linewidths were determined based on the fitted results. […]
(c) Estimation of the V2Rpp-βarr1 binding affinity based on peak intensity changes of the D390C site of βarr1 titrated with V2Rpp. […] The values of θ were calculated as by θ = V-,⁄(V-. + V-,), in which VS1 and VS2 correspond to the volume integrals of the peaks of S1 and S2 states, respectively. […]

Experiment [3] concerns βarr1-3Q (K232Q/R236Q/K250Q). The experiment can be described thus: 1D 19F NMR of PIP2-binding deficient mutant. Format: biochemical, human. Conditions: H295C site. On the procedure: The ^19F-labeled βarr1 was diluted to 50 μM using buffer E before incubation with peptides or PIP2. The V2Rpp, β2AR-GRK2pp/GRK6pp or PIP2 were added at 1.2-fold, 3-fold, and 1.5-fold molar ratio excess to the protein, respectively. For the membrane-bound sample, the reconstituted nanodiscs were added at twofold molar ratio of βarr1. All complexes were incubated at 25 °C for 1 h, and the freshly prepared samples were immediately subjected to ^19F NMR experiments.
NMR samples were prepared in buffer E to a final volume of 140 μL, supplemented with 1 mM DTT, 10% D2O for field lock, and 1 μM sodium trifluoroacetate (STFA) as the internal chemical shift reference. All samples were sterile-filtered and loaded into sterile 3 mm NMR microtubes to prevent microbial contamination. Final protein concentrations vary for different constructs, depending on their expression levels and stabilities, but all in the range of 20–50 μM.
All ^19F NMR spectra were recorded at 298 K using a Bruker AVANCE III HD 800 MHz spectrometer equipped with a ^1H-^19F/^13C/^15N TCI triple resonance cryogenic probe. […] The carrier frequency was set to −68.0 ppm and the spectra were recorded with 4k points and a spectral width of 15,000 Hz. […]
All NMR data were analyzed using the MestraNova 12.0.0 software (https://mnova.pl). […] Peak intensities, integrated peak area and linewidths were determined based on the fitted results.

SMILES strings stand for the structures.

T1 sequence (P49407 whole entry C59V/C125S/C140L/C150V/C242V/C251V/C269S/D390C): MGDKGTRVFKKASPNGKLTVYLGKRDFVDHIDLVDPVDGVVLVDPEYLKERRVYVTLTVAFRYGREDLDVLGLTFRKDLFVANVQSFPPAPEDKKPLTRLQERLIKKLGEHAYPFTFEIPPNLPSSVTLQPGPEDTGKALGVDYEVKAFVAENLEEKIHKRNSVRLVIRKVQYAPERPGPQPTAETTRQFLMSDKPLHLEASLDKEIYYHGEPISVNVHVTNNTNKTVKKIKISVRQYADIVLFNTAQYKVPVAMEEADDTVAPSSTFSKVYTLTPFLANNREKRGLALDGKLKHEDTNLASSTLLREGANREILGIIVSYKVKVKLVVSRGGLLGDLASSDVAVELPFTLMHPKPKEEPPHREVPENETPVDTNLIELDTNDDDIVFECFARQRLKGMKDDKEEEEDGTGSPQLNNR

In the case of `CCCCCCCC(=O)OC[C@H](COP(=O)(O)O[C@@H]1[C@H](O)[C@H](O)[C@@H](OP(=O)(O)O)[C@H](OP(=O)(O)O)[C@H]1O)OC(=O)CCCCCCC` [PIP2, diC8-PI(4,5)P2], the “Intermediate S* state by CEST” value in experiment [1] (D390C site) is “induces an intermediate conformational species designated as S*”; in experiment [1] (E404C and T6C sites), “induces the conformational equilibrium to shift from the basal towards an intermediate S* state”; in experiment [1] (H295C site) it was “present in relatively large fraction in both the basal and PIP2-bound states”. Besides, the “Activation of βarr1 at D390C on titration” value in experiment [2] (D390C site) is “minimally affects”. Also, the “Activation of βarr1 at H295C on titration” value in experiment [2] (H295C site) is “partially activates”. In addition, the “Transition to S2 state” value in experiment [3] is recorded as “such spectral changes were not observed”.
